One assay deals with human recombinant FGFR1 (Homo sapiens, UniProt P11362). Nature of the assay: FGFR family enzymatic activity assay (Caliper-based kinase assay), FGFR1. In kind it is biochemical. The settings on record: FGFR1 0.5 nM, ATP 100 μM, peptide substrate 1 μM, room temperature 3 h. The text has this:
A Caliper-based kinase assay (Caliper Life Sciences, Hopkinton, Mass.) was used to measure inhibition of FGFR family (FGFR1, FGFR2, FGFR3, FGFR4) kinase activity of a compound of Formula (I′) or (I). […] This value is presented as the IC50.

The subject of the next assay is SNU-16 cells. Nature of the assay: Inhibition of FGFR2-dependent cell growth (Cell-titer Glo). The settings on record: Homo sapiens, SNU16 cells, 72 hrs incubation, cell viability by Cell-titer Glo. It is filed as cell-based. The protocol:
The cell-based effects of FGFR inhibitors were determined by measuring inhibition of FGFR-dependent cell line growth. […] Percent inhibition of cell growth was calculated as a percentage of untreated cell viability. The percent inhibition was plotted as a function of log compound concentration. The IC50 was then calculated for each compound using Prism software from GraphPad.

Sequence of human recombinant FGFR1 (P11362 22-822): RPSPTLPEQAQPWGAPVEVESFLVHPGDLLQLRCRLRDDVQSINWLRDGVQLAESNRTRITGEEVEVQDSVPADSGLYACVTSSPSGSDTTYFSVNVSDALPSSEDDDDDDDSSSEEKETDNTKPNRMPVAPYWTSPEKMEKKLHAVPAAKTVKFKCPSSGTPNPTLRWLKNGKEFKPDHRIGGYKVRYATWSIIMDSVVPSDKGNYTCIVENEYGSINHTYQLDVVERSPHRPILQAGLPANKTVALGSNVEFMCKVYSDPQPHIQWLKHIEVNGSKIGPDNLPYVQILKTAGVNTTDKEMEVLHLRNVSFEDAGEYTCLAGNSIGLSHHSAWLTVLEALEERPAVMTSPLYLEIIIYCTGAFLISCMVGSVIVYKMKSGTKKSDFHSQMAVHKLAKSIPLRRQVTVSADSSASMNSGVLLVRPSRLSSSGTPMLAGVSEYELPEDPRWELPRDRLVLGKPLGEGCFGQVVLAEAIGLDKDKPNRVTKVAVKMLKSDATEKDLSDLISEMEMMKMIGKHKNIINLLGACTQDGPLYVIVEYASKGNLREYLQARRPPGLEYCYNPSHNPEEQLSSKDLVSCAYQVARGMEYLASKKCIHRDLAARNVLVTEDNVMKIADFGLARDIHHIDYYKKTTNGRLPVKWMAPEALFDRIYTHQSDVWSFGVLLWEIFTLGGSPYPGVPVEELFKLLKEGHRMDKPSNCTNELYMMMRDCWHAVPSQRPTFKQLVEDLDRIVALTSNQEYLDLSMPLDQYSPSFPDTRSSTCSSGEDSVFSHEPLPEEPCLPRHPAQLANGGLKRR

In the case of `C=CC(=O)Nc1ccc(CCn2c(=O)c(-c3cc(OC)cc(OC)c3Cl)cc3cnc(NCCCN(CC)CC)nc32)cc1` [Example 40, N-(4-(2-(6-(2-chloro-3,5-dimethoxyphenyl)-2-((3-(diethylamino)propyl)amino)-7-oxopyrido[2,3-d]pyrimidin-8(7H)-yl)ethyl)phenyl)acrylamide], the half-maximal inhibitory concentration (IC50) (as a rule, the concentration that inhibits the measured activity by half) on human recombinant FGFR1 turned out to be 2.4 nM; in the assay on SNU-16 cells it was 3 nM. Regarding `C=CC(=O)Nc1ccc(CCn2c(=O)c(-c3cc(OC)cc(OC)c3Cl)cc3cnc(NCCN4C[C@@H](C)O[C@@H](C)C4)nc32)cc1` [Example 58, N-(4-(2-(6-(2-chloro-3,5-dimethoxyphenyl)-2-((2-((2R,6S)-2,6-dimethyl-morpholino)ethyl)-amino)-7-oxopyrido[2,3-d]pyrimidin-8(7H)-yl)ethyl)phenyl)acrylamide], the IC50 was 1.3 nM on human recombinant FGFR1 and 0.8 nM with SNU-16 cells. Take `C=CC(=O)Nc1ccc(CCn2c(=O)c(-c3c(Cl)c(OC)cc(OC)c3Cl)cc3cnc(NCC(C)(C)CO)nc32)nc1` [Example 97, N-(6-(2-(6-(2,6-dichloro-3,5-dimethoxyphenyl)-2-((3-hydroxy-2,2-dimethylpropyl)-amino)-7-oxopyrido[2,3-d]pyrimidin-8(7H)-yl)ethyl)pyridin-3-yl)acrylamide]: the IC50 on human recombinant FGFR1 was determined as 1.5 nM; in the assay with SNU-16 cells, 6.4 nM.

With `C=CC(=O)Nc1ccc(CCn2c(=O)c(-c3c(Cl)c(OC)cc(OC)c3Cl)cc3cnc(NCC4(O)CCN(C)CC4)nc32)cc1` [Example 98, N-(4-(2-(6-(2,6-dichloro-3,5-dimethoxyphenyl)-2-(((4-hydroxy-1-methylpiperidin-4-yl)methyl)-amino)-7-oxopyrido[2,3-d]pyrimidin-8(7H)-yl)ethyl)phenyl)acrylamide], the IC50 on human recombinant FGFR1 was 0.3 nM; in the assay with SNU-16 cells it was 16.4 nM.

Turning to `C=CC(=O)Nc1ccc(CCn2c(=O)c(-c3c(Cl)c(OC)cc(OC)c3Cl)cc3cnc(NC4CCOCC4)nc32)nc1` [Example 81, N-(6-(2-(6-(2,6-dichloro-3,5-dimethoxyphenyl)-7-oxo-2-((tetrahydro-2H-pyran-4-yl)amino)-pyrido[2,3-d]pyrimidin-8(7H)-yl)ethyl)pyridin-3-yl)acrylamide], the results for the IC50 at human recombinant FGFR1 and in the assay on SNU-16 cells were 0.3 nM and 4.1 nM, respectively. Consider `C=CC(=O)Nc1ccc(CCn2c(=O)c(-c3cc(OC)cc(OC)c3Cl)cc3cnc(NCCN(CC)CC)nc32)cn1` [Example 29, N-(5-(2-(6-(2-chloro-3,5-dimethoxyphenyl)-2-((2-(diethylamino)ethyl)amino)-7-oxopyrido[2,3-d]pyrimidin-8(7H)-yl)ethyl)pyridin-2-yl)acrylamide], for which the concentration for half-maximal inhibition (IC50) on human recombinant FGFR1 came out at 49.3 nM. Turning to `CNc1ncc2cc(-c3cc(OC)cc(OC)c3Cl)c(=O)n(CCc3ccc(NC(=O)/C=C/CN(C)C)cc3)c2n1` [Example 22, (E)-N-(4-(2-(6-(2-chloro-3,5-dimethoxyphenyl)-2-(methylamino)-7-oxopyrido[2,3-d]pyrimidin-8(7H)-yl)ethyl)phenyl)-4-(dimethylamino)but-2-enamide], the IC50 on human recombinant FGFR1 was 0.4 nM; with SNU-16 cells, 1 nM.

As to `C=CC(=O)Nc1cn(CCn2c(=O)c(-c3cc(OC)cc(OC)c3Cl)cc3cnc(NC)nc32)cn1` [Example 48, N-(1-(2-(6-(2-chloro-3,5-dimethoxyphenyl)-2-(methylamino)-7-oxopyrido[2,3-d]-pyrimidin-8(7H)-yl)ethyl)-1H-imidazol-4-yl)acrylamide], the IC50 on human recombinant FGFR1 amounted to 48 nM. Consider `C=CC(=O)Nc1ccc(CCn2c(=O)c(-c3cc(OC)cc(OC)c3Cl)cc3cnc(NC(C)(C)CN4CCOCC4)nc32)cc1` [Example 67, N-(4-(2-(6-(2-chloro-3,5-dimethoxyphenyl)-2-((2-methyl-1-morpholinopropan-2-yl)amino)-7-oxopyrido[2,3-d]pyrimidin-8(7H)-yl)ethyl)phenyl)acrylamide], for which the results for the IC50 on human recombinant FGFR1 and in the assay with SNU-16 cells were 2.3 nM and 9.7 nM, respectively. On the same counts, the results for `C=CC(=O)Nc1ccc(CCn2c(=O)c(-c3c(Cl)c(OC)cc(OC)c3Cl)cc3cnc(NC(C)(C)CO)nc32)nc1` [Example 94, N-(6-(2-(6-(2,6-dichloro-3,5-dimethoxyphenyl)-2-((1-hydroxy-2-methylpropan-2-yl)amino)-7-oxopyrido[2,3-d]pyrimidin-8(7H)-yl)ethyl)pyridin-3-yl)acrylamide] are 2.1 nM and 7.4 nM. On to `C=CC(=O)Nc1ccc(CCn2c(=O)c(-c3cc(OC)cc(OC)c3Cl)cc3cnc(NCC(C)(C)O)nc32)nc1` [Example 109, N-(6-(2-(6-(2-chloro-3,5-dimethoxyphenyl)-2-((2-hydroxy-2-methylpropyl)amino)-7-oxopyrido[2,3-d]pyrimidin-8(7H)-yl)ethyl)pyridin-3-yl)acrylamide], for which the values for the IC50 on human recombinant FGFR1 and with SNU-16 cells were 1.6 nM and 3.5 nM, respectively. As for `C=CC(=O)Nc1cccc(CCn2c(=O)c(-c3cc(OC)cc(OC)c3F)cc3cnc(NCCN4CCOCC4)nc32)c1` [Example 52, N-(3-(2-(6-(2-fluoro-3,5-dimethoxyphenyl)-2-(2-morpholin-4-ylethyllamino)-7-oxopyrido[2,3-d]pyrimidin-8(7H)-yl)ethyl)phenyl)acrylamide], the IC50 at human recombinant FGFR1 is 5.4 nM; in the assay with SNU-16 cells, 15 nM. Take `C=CC(=O)Nc1ccc(CCn2c(=O)c(-c3cc(OC)cc(OC)c3Cl)cc3cnc(NC(C)(CO)CO)nc32)cc1` [Example 95, N-(4-(2-(6-(2-chloro-3,5-dimethoxyphenyl)-2-((1,3-dihydroxy-2-methylpropan-2-yl)amino)-7-oxopyrido[2,3-d]pyrimidin-8(7H)-yl)ethyl)phenyl)acrylamide]: the IC50 on human recombinant FGFR1 was found to be 6.2 nM. As for `C=CC(=O)Nc1ccc(CCn2c(=O)c(-c3cc(OC)cc(OC)c3Cl)cc3cnc(NCCN4CCC(F)(F)CC4)nc32)cc1` [Example 111, N-(4-(2-(6-(2-chloro-3,5-dimethoxyphenyl)-2-((2-(4,4-difluoropiperidin-1-yl)-ethyl)amino)-7-oxopyrido[2,3-d]pyrimidin-8(7H)-yl)ethyl)phenyl)acrylamide], the IC50 at human recombinant FGFR1 amounted to 3.4 nM. Turning to `C=CC(=O)Nc1ccc(CCn2c(=O)c(-c3c(Cl)cccc3Cl)cc3cnc(NC)nc32)nc1` [Example 107, N-(6-(2-(6-(2,6-dichlorophenyl)-2-(methylamino)-7-oxopyrido[2,3-d]pyrimidin-8(7H)-yl)ethyl)pyridin-3-yl)acrylamide], at human recombinant FGFR1, the IC50 stood at 12.5 nM. With `C=CC(=O)Nc1ccc(CCn2c(=O)c(-c3cc(OC)cc(OC)c3Cl)cc3cnc(Nc4ccccn4)nc32)nc1` [Example 108, N-(6-(2-(6-(2-chloro-3,5-dimethoxyphenyl)-7-oxo-2-(pyridin-2-ylamino)pyrido[2,3-d]pyrimidin-8(7H)-yl)ethyl)pyridin-3-yl)acrylamide], the concentration for half-maximal inhibition (IC50) on human recombinant FGFR1 stood at 8.2 nM. Turning to `C=CC(=O)Nc1ccc(CCn2c(=O)c(-c3cc(OC)cc(OC)c3F)cc3cnc(NCCN4CCOCC4)nc32)cc1F` [Example 53, N-(2-fluoro-4-(2-(6-(2-fluoro-3,5-dimethoxyphenyl)-2-((2-morpholinoethyl)amino)-7-oxopyrido[2,3-d]pyrimidin-8(7H)-yl)ethyl)phenyl)acrylamide], the IC50 at human recombinant FGFR1 was found to be 28.9 nM; in the assay with SNU-16 cells it was 71.3 nM.

Consider `C=CS(=O)(=O)Nc1ccc(CCn2c(=O)c(-c3cc(OC)cc(OC)c3Cl)cc3cnc(NC)nc32)cc1` [Example 20, N-(4-(2-(6-(2-chloro-3,5-dimethoxyphenyl)-2-(methylamino)-7-oxopyrido[2,3-d]pyrimidin-8(7H)-yl)ethyl)phenyl)ethenesulfonamide], for which the half-inhibitory concentration (IC50) worked out at 3.4 nM on human recombinant FGFR1 and 24.3 nM in the assay on SNU-16 cells.

`C=CC(=O)Nc1ccc(CCn2c(=O)c(-c3cc(OC)cc(OC)c3Cl)cc3cnc(NCC4(O)CCN(C)CC4)nc32)cc1` [Example 96, N-(4-(2-(6-(2-chloro-3,5-dimethoxyphenyl)-2-(((4-hydroxy-1-methylpiperidin-4-yl)methyl)-amino)-7-oxopyrido[2,3-d]pyrimidin-8(7H)-yl)ethyl)phenyl)acrylamide]: the IC50 on human recombinant FGFR1 turned out to be 9.8 nM. Take `C=CC(=O)Nc1ccc(CCn2c(=O)c(-c3c(Cl)cccc3Cl)cc3cnc(NC)nc32)cc1` [Example 106, N-(4-(2-(6-(2,6-dichlorophenyl)-2-(methylamino)-7-oxopyrido[2,3-d]pyrimidin-8(7H)-yl)ethyl)phenyl)acrylamide]: the half-inhibitory concentration (IC50) on human recombinant FGFR1 came to 29.6 nM. For the compound `C=CC(=O)Nc1ccc(CCn2c(=O)c(-c3c(Cl)c(OC)cc(OC)c3Cl)cc3cnc(NC(CC)(CO)CO)nc32)nc1` [Example 100, N-(6-(2-(6-(2,6-dichloro-3,5-dimethoxyphenyl)-2-((1-hydroxy-2-(hydroxymethyl)-butan-2-yl)amino)-7-oxopyrido[2,3-d]pyrimidin-8(7H)-yl)ethyl)pyridin-3-yl)acrylamide], in the assay on SNU-16 cells, half-maximal inhibition (IC50) was put at 26.2 nM. Regarding `C=CC(=O)Nc1cccc(CCn2c(=O)c(-c3cc(OC)cc(OC)c3F)cc3cnc(NCCCCN(CC)CC)nc32)c1` [Example 42, N-(3-(2-(6-(2-fluoro-3,5-dimethoxyphenyl)-2-(4-diethylaminobutylamino)-7-oxopyrido[2,3-d]pyrimidin-8(7H)-yl)ethyl)phenyl)acrylamide], at human recombinant FGFR1, the IC50 turned out to be 1.8 nM. For the compound `C=CC(=O)Nc1ccc(CCn2c(=O)c(-c3cc(OC)cc(OC)c3Cl)cc3cnc(NCC(C)(C)N4CCOCC4)nc32)cc1` [Example 110, N-(4-(2-(6-(2-chloro-3,5-dimethoxyphenyl)-2-((2-methyl-2-morpholinopropyl)-amino)-7-oxopyrido[2,3-d]pyrimidin-8(7H)-yl)ethyl)phenyl)acrylamide], on human recombinant FGFR1, the half-inhibitory concentration (IC50) turned out to be 1.9 nM. On the same count and under the same terms, the value for `C=CC(=O)Nc1ccc(CCn2c(=O)c(-c3cc(OC)cc(OC)c3Cl)cc3cnc(NCCN4C[C@@H](C)N[C@@H](C)C4)nc32)cc1` [Example 85, N-(4-(2-(6-(2-chloro-3,5-dimethoxyphenyl)-2-((2-((3S,5R)-3,5-dimethylpiperazin-1-yl)ethyl)amino)-7-oxopyrido[2,3-d]pyrimidin-8(7H)-yl)ethyl)phenyl)acrylamide] was 1.2 nM.
